These results are taken from US6696545B1, “Cytomodulating lipophilic peptides for modulating immune system activity and inhibiting inflammation” (Sangstat Medical Corporation, priority 1997, dated 2004).

Ends that are not written are not given here.

As usually defined, the IC50 is the midpoint of a concentration-inhibition curve.

In experiment [1] the test system is C57BL/6 neonatal heart allograft in CBA/J recipient mice. Briefly: Heterotopic neonatal cardiac transplant into ear pinnae, direct injection into allograft. The experiment is classed as in vivo, mouse. The method, then: We next sought to determine if local delivery of bc peptides via plasmid-mediated gene transfer could extend in vivo transplant survival in a murine heterotopic cardiac transplant model. Specifically, C57BL/6 donor neonatal hearts were transplanted subcutaneously into the ear pinnae of CBA/J recipient mice, bc peptide, or 20 μg of plasmid DNA encoding the bc peptide of interest, was injected directly into the allograft at the time of transplantation. Survival of the allografts was determined by electrocardiogram monitoring and rejection was determined as the cessation of cardiac electrical activity. Graft survival is expressed in days (mean±SEM). Statistical significance was determined by an unpaired Student's t-test.

Another experiment addresses T1, recombinant hsc70 (Bos taurus, UniProt P19120).
T1 construct: purchased Stressgen, Victoria, Canada
The experiment is described as follows: hsc70 binding ELISA / competition with biotinylated-2702.75-84. The method, then: To determine if bc peptides are capable of binding to hsc70, protein binding assays were performed. Specifically, peptide 2702.75-84 was synthesized in a biotinylated form with biotin attached to the N-terminus via a six carbon spacer. ELISA plates (Nunc Maxisorb, Nunc, USA) were coated with 100 ng/ml of recombinant hsc70 (Stressgen, Victoria, Canada) in 100 mM Na-citrate buffer, pH 4.0 overnight at 4° C. Subsequently, remaining binding sites were blocked by incubating the plates with PBS/0.1% Tween 20 (PBS/Tween; Sigma) for 2 hours at room temperature. Unbound material was removed by washing the plates three times with PBS/Tween. Following the addition of biotinylated 2702.75-84 in PBS/Tween/1% DMSO, the plates were incubated for 2 hours at room temperature, washed three times, incubated with 0.1 μg/ml streptavidin conjugated to horseradish peroxidase (streptavidin-HRP) (Jackson ImmunoResearch Laboratories, West Grove, Pa.) and washed again. Bound streptavidin-HRP was detected using 3 mg/ml o-phenylenediamine (OPD; Sigma) in substrate buffer (SangStat, Menlo Park, Calif.). The reaction was stopped by addition of 1M HCl and absorbance (OD490-OD605) was measured using an ELISA plate reader. Binding of unlabeled peptide was measured in a competition assay. […] Bound biotinylated-2702.75-84 was then detected as described above.
(In general: An ELISA detects its analyte on a solid surface through an enzyme-linked reagent.)

Experiment [2] has as its system C57B1/6 heart allograft in CBA mice. The experiment is described as follows: Vascularized fully mismatched heterotopic heart allograft model. Particulars: intraperitoneal. Format: in vivo, mouse. The procedure: The immunosuppressive activity of the bc peptides was evaluated in a vascularized fully mismatched mouse heart allograft model. Specifically, abdominal heterotopic heart transplantation was performed as described previously by Ono and Lindsey, J. Thoracic Cardiovasc. Surg. 7:225 (1969)). CBA mice recipients of C57B1/6 hearts were treated daily with various doses of peptide following organ transplantation. Peptides were dissolved in DMSO and diluted in PBS (final DMSO concentration was 10%) before intraperitoneal administration. Animals were treated starting at the day of transplantation until day five or nine. Graft survival was monitored daily by direct palpation, and rejection was defined as termination of palpable cardiac contractility. The statistical significance of prolongation of heart allograft survival was calculated using the Mann-Whitney test.

For experiment [3], the system named is T-cell mediated lysis of EL4 target cells by CBA to B6 effector cells. The experiment is described as follows: Cytotoxic T-cell activity, 51Cr release assay. The experiment is classed as cell-based, mouse. Conditions: concentrations up to 100 μg/ml, 4-hour incubation. The method, then:
To assay the effect of peptides on cytotoxic T cell activity, CBA to B6 effector cells were prepared following a 6-day culture of 4×10^6 CBA spleen cells with 5×10^6 mitomycin-treated B6 spleen cells in wells of a 24 well plate (Nuncion Delta, Nunc, Denmark) in RPMI-1640 with 10% FBS. Effector cells were then harvested and washed. EL4 (H-2^b), a mouse lymphoma induced in C57BL/6N was used as target cells. Cultured EL4 cells were maintained and sub-cultured once every three days […] Effector (E) and target (T) cells were then added into V-shaped tissue culture plates (Nunc, Denmark) at E:T ratios of 3:1, 10:1, 30:1, 100:1, respectively. Peptides were diluted to the working concentrations with R-10 medium and added at the beginning of the 4-hour incubation period. For the determination of maximal release, 1% Triton X-100 was added to separate wells. Plates were then centrifuged for 2 min. to increase cellular contact before the 4-hour incubation period. After incubation, 75 μl supernatant from each well was collected and the amount of ^51Cr was counted using a TopCount Scintillation Counter. The degree of cell lysis was calculated using the formula below: [formula]

Experiment [4] deals with T-cell proliferation (spleen cells isolated from CBA mice stimulated with anti-CD3 monoclonal antibody). Briefly: Antiproliferative activity: anti-CD3 stimulated spleen cells, [3H]-TdR incorporation. Format: cell-based, mouse. Particulars: 3 days. An excerpt: Adult 6-8 week old male C57BL6/J (B6, […]), Balb/c(H-2^d) and CBA/J (H-2^k) mice were purchased from the Jackson Laboratory, Bar Harbor, Me. They were kept and maintained in the animal facility in the SangStat Medical Corporation according to NIH guidelines and regulations of the Department of Health.
Peptides were synthesized at synt:em (Nimes, France) using an automated peptide synthesizer and Fmoc chemistry. All peptides were synthesized as amides and then converted to acetate salts. Peptides were purified by preparative reverse phase HPLC and shown to be >95% homogenous by analytical reverse phase HPLC. Amino acid content was confirmed by amino acid analysis. Before use, peptides were first dissolved in 1 volume of DMSO (Sigma) followed by addition of 99 volume of culture medium. The final concentration of DMSO in culture was not greater than 0.25%. […]
Spleen cells isolated from CBA mice were then stimulated (2×10^5/well) with anti-CD3 monoclonal antibody (Pharmingen, San Diego) at a final concentration of 0.1 to 1 μg/ml in 96-well, round-bottom microculture plates (Nunc, Denmark). bc peptides at various concentrations were added at the beginning of the culture. […] Cells were then harvested using a Filtermate 196 Harvester (Packard, Downers Grove, Ill.) and the degree of thymidine incorporation was measured using a TopCount Microplate Scintillation Counter (Packard).

In experiment [5] the target is T2, heme oxygenase (HO, hsp32) (Mus musculus, UniProt P14901).
T2 construct: Spleen homogenates were used as the source of HO for all activity measurements; from tissue; host or cells: mouse spleen homogenate
T2 sequence (P14901 1-289): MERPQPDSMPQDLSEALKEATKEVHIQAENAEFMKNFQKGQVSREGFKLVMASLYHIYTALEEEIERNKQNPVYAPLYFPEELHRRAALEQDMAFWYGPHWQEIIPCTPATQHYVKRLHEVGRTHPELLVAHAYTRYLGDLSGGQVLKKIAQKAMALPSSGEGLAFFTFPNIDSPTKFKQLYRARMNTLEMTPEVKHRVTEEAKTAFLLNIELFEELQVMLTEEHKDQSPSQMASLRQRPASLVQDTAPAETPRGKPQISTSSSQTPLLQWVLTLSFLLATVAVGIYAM
Briefly: Heme oxygenase activity in spleen homogenate (bilirubin formation). The experiment is classed as biochemical. Conditions: control peptide. The method, then:
The effect of the bc peptides on hsp32 (heme oxygenase) was evaluated by measuring heme oxygenase (HO) in the presence or absence of bc peptides. Specifically, mouse spleen samples were homogenized on ice in a Tris-Cl lysis buffer (pH 7.4) containing 0.5% Triton X-100 and protease inhibitors. Samples were frozen in small aliquots until use. Spleen homogenates were used as the source of HO for all activity measurements. Biliverdin reductase was purified from rat liver by the method described by Kutty and Maines, J. Biol Chem., 256:3956 (1981). HO activity was measured by mixing 100 μl of spleen homogenate with 0.8 mM NADPH, 0.8 mM glucose-6-phosphate, 1.0 unit G-6-P dehydrogenase, 1 mM MgCl2 and 10 μl of biliverdin reductase at 4° C. The reaction was initiated by the addition of Hemin (20 μl of 2.5 mM). The reaction mixture was incubated at 37° C. in the dark for 30 min. At the end of the incubation period, any insoluble material was centrifuged and supernatants were analyzed for bilirubin concentration by a modified procedure of Hillman and Beyer, Z. Klin. Chem. 5:92 (1981) (Sigma Diagnostics, kit #552). Controls included spleen samples in the absence of the NADPH generating system and all components of the reaction mixture in the absence of the spleen homogenates.

In experiment [6] the test system is LPS-induced septic shock in mice. The experiment is described as follows: LPS septic shock model, survival. Format: in vivo, mouse. Particulars: 20 mg/kg peptide in mannitol 16 h before 100 mg/kg LPS. An excerpt:
Administration of LPS to mice provides an accepted animal model for septic shock (see Otterbein et al., Amer. J. Physiol. 272(2):1 (1997), Albrecht et al., Hepatology 26:1553-1559 (1997), Haziot et al., J. Immunol. 154:6529-6532 (1995) and Otterbein et al., Am. J. Respir. Cell Mol. Biol. 13:595-601 (1995)). To provide further evidence of the utility of bc peptides for the treatment of inflammatory responses and inflammatory conditions (such as septic shock), we tested the effect of bc peptides on the survival of mice following administration of LPS thereto. Specifically, mice were treated with 20 mg/kg of control peptide 2705 or bc peptide in mannitol or with mannitol alone. Sixteen hours after administration of the peptide in mannitol or mannitol alone, the mice were injected with 100 mg/kg LPS and survival of the mice was monitored twice daily.

For experiment [7], the system named is TNF-α production by RAW264.7 macrophage cells. The experiment is described as follows: LPS-stimulated TNF-α production, ELISA of culture supernatants. The experiment is classed as cell-based. Particulars: 10 μg/ml LPS, 1 to 100 μM peptide, 24 hours. The method, then: In order to determine the effect of bc peptides on the production of inflammatory cytokines, RAW264.7 macrophage cells were stimulated in culture with 10 μg/ml bacterial lipopolysaccharide (LPS) to produce the inflammatory cytokine tumor necrosis factor-α (TNF-α) (see […] et al., J. Immunol. 153:1674 (1994) and Tonetti et al., Biochem. Biophys. Res. Comm. 230:636-640 (1997)), either in the absence or presence (1 to 100 μM) of test peptide. Following incubation for 24 hours, the amount of TNF-α in the culture supernatents was determined by ELISA.

T1 sequence (P19120 2-650 limits assumed): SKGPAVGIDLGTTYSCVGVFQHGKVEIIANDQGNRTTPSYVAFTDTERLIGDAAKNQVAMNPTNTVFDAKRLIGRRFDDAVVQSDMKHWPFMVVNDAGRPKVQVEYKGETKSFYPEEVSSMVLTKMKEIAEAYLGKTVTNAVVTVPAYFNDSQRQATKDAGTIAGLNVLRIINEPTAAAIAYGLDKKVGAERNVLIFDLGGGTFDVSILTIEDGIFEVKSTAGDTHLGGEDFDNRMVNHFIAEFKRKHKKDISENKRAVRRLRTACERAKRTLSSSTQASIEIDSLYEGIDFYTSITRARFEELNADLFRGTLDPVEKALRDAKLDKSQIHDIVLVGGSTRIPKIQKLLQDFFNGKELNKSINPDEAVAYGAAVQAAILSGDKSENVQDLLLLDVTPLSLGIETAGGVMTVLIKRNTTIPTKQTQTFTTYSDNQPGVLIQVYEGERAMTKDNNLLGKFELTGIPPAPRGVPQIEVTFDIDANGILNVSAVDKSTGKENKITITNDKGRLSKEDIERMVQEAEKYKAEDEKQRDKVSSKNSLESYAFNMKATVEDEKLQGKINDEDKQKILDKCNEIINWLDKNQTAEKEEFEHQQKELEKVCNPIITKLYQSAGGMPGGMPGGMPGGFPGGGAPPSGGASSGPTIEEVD

Regarding `CC[C@H](C)[C@H](NC(=O)[C@H](CCCNC(=N)N)NC(=O)[C@H](CC(C)C)NC(=O)[C@H](CC(N)=O)NC(=O)[C@H](CCC(=O)O)NC(=O)[C@@H](N)CCCNC(=N)N)C(=O)N[C@@H](C)C(=O)N[C@@H](CC(C)C)C(=O)N[C@@H](CCCNC(=N)N)C(=O)N[C@@H](Cc1ccc(O)cc1)C(N)=O` [2702.75-84, Arg-Glu-Asn-Leu-Arg-Ile-Ala-Leu-Arg-Tyr], the “Graft survival (mean±SEM)” value stood at 13.3 ± 0.75 days in experiment [1] (1 μg peptide injected directly into the allograft, untreated controls 13.9±0.9) and 22.0 ± 0.58 days in experiment [1] (400 μg peptide injected directly into the allograft). Moreover, the IC50 at recombinant hsc70 (competition with 3 μM biotinylated-2702.75-84, 3 hrs room temperature, read-out: Half maximal inhibition (IC50) of binding of biotinylated-2702.75-84 to hsc70) stood at 7 ± 3 µM. The “effect on transplant survival over the control treatment” value in experiment [2] (40 mg/kg/day) is given as “no observable effect”. The same compound showed a heart allograft survival in experiment [2] (80 mg/kg/day (days 0-9), PBS/DMSO controls 8±1.4 days) of 10.7±2.6 days.

REDLRTLLRY [compound 2705]: the “effect on T-cell mediated target cell lysis” value in experiment [3] is reported as “no effect”. Moreover, the “effect on T-cell proliferation” value in experiment [4] is recorded as “no effect”. For the same compound, the “effect on HO activity” value in experiment [5] is “inactive”. For the same compound, the “survival of mice after LPS” value in experiment [6] is “died on day one”.

As for RVNLPIALRY [D2RP, control peptide], the “inhibition of the production of TNF-α” value in experiment [7] is on record as “no ability to inhibit”.

For “biotinylated-2702.75-84: peptide 2702.75-84 with biotin attached to the N-terminus via a six carbon spacer”, the “binding to hsc70 coated ELISA plates” value with recombinant hsc70 (direct binding, streptavidin-HRP detection) is on record as “dose dependent binding”.
